Experiment [1] concerns NCI-H23 human non-small cell lung cancer. Nature of the experiment: NCI-H23 CCK-8 proliferation assay. The format is cell-based. The conditions noted are these: NCI-H23 cells, 72 hr. As to the method: The following cancer cell lines were employed: BT-474 human breast carcinoma (ATCC, #HTB-20); MIA PaCa-2 human pancreatic carcinoma [2 copies KRAS(G12C)](ATCC, #CRL-1420); NCI-H23 human non-small cell lung cancer [1 copy KRAS(G12C)](ATCC, #CRL-5800); NCI-H358 human non-small cell lung cancer [1 copy KRAS(G12C)](ATCC, #CRL-5807); LU65A human lung carcinoma (Pharmaron, Beijing, China). Cell lines were cultured essentially according to ATCC and Pharmaron recommendations.
Cancer Cell Line Proliferation (CCK-8) Assays
3-fold serial dilutions of each test compound were prepared ranging from 20 μM to 1.02 nM.
% Inhibition=100−(D−B)/(S−B)*100%. • S: Absorbance of cells treated with DMSO • D: Absorbance of compound-treated cells • B: Absorbance of medium with DMSO without cells
On the technique in general: Tetrazolium dyes change colour on reduction, which living cells bring about.

Experiment [2] deals with NCI-H358 human non-small cell lung cancer. As to the kind of experiment: NCI-H358 CCK-8 proliferation assay. The format is cell-based. Conditions: NCI-H358 cells, 72 hr. The method in brief:
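Compounds were tested as a 3-fold series from 20 μM down to 1.02 nM in CCK-8 absorbance assays. The lines used were NCI-H23 and NCI-H358, each with 1 KRAS(G12C) copy, and MIA PaCa-2 with 2 copies. Inhibition was derived relative to DMSO controls, with a no-cell blank subtracted.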

The target of the next experiment is T1, HSP90a protein (Homo sapiens, UniProt P07900).
T1 construct: purchased BPS Bioscience 50298
Nature of the experiment: HSP90α-binding fluorescent polarization (FP) assay, BODIPY-labeled RNK04010 probe. The conditions noted are these: FP competition with RNK04010 (BODIPY-labeled), 5 nM, 300 min at 25° C. The method in brief:
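Binding was scored by fluorescence polarization after adding N-terminal HSP90a to wells holding probe and compound, with compound tested from 20 μM to 5.2 nM. Probe-dependent times at 25° C were 120 min for FITC-geldanamycin and 300 min for RNK04010-BODIPY, both at 5 nM final.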

As a reminder, the EC50 is the concentration needed to bring the measured effect to its halfway point. A lower EC50 goes with greater potency. As usually defined, the IC50 is the concentration at which inhibition is half-maximal. For the compound `CC(=O)N1CCN(c2nc(NCCC(=O)N[C@H](C)c3ccc(CN4CCC(Cc5ccc(-n6c(O)nnc6-c6cc(C(C)C)c(O)cc6O)cc5)CC4)cc3)nc3c2CCN(c2cc(O)cc4ccccc24)C3)CC1` [Compound 60, (R)-3-((4-(4-acetylpiperazin-1-yl)-7-(3-hydroxynaphthalen-1-yl)-5,6,7,8-tetrahydropyrido[3,4-d]pyrimidin-2-yl)amino)-N-(1-(4-((4-(4-(3-(2,4-dihydroxy-5-isopropylphenyl)-5-hydroxy-4H-1,2,4-triazol-4-yl)benzyl)piperidin-1-yl)methyl)phenyl)ethyl)propanamide, trifluoroacetic acid], the EC50 was above 1 µM in experiment [1] and 0.1 to 1 µM in experiment [2]. The IC50 on HSP90a protein was below 0.1 µM.
Taken in the same sequence, the figures for `CCC(=O)N1CCN(c2nc(NCCC(=O)N[C@H](C)c3ccc(CN4CCC(Cc5ccc(-n6c(O)nnc6-c6cc(C(C)C)c(O)cc6O)cc5)CC4)cc3)nc3c2CCN(c2cc(O)cc4ccccc24)C3)CC1` [Compound 61] were above 1 µM, 0.1 to 1 µM and below 0.1 µM.
Taken in the same sequence, the figures for `C=CC(=O)N1CCN(c2nc(OCCC(=O)N3CCC(CN4CCN(Cc5ccc(-n6c(O)nnc6-c6cc(C(C)C)c(O)cc6O)cc5)CC4)CC3)nc3c2CCN(c2cc(O)cc4ccccc24)C3)CC1` [Compound 15, 1-(4-(2-(3-(4-((4-(4-(3-(2,4-dihydroxy-5-isopropylphenyl)-5-hydroxy-4H-1,2,4-triazol-4-yl)benzyl)piperazin-1-yl)methyl)piperidin-1-yl)-3-oxopropoxy)-7-(3-hydroxynaphthalen-1-yl)-5,6,7,8-tetrahydropyrido[3,4-d]pyrimidin-4-yl)piperazin-1-yl)prop-2-en-1-one, trifluoroacetic acid] were 0.1 to 1 µM, 0.1 to 1 µM and below 0.1 µM.
The corresponding values for `C=CC(=O)N1CCN(c2nc(NCCC(=O)N3CCC(Cc4ccc(CN(C)Cc5ccc(-n6c(O)nnc6-c6cc(C(C)C)c(O)cc6O)cc5)cc4)CC3)nc3c2CCN(c2cc(O)cc4ccccc24)C3)CC1` [Compound 19, 1-(4-(2-((3-(4-(4-(((4-(3-(2,4-dihydroxy-5-isopropylphenyl)-5-hydroxy-4H-1,2,4-triazol-4-yl)benzyl)(methyl)amino)methyl)benzyl)piperidin-1-yl)-3-oxopropyl)amino)-7-(3-hydroxynaphthalen-1-yl)-5,6,7,8-tetrahydropyrido[3,4-d]pyrimidin-4-yl)piperazin-1-yl)prop-2-en-1-one, trifluoroacetic acid] are 0.1 to 1 µM, 0.1 to 1 µM and 0.1 to 1 µM.
With `C=CC(=O)N1CCN(c2nc(NCCC(=O)N3CCC(Cc4ccc(-n5c(C(=O)NCC(F)(F)F)nnc5-c5cc(C(C)C)c(O)cc5O)cc4)CC3)nc3c2CCN(c2cc(O)cc4ccccc24)C3)CC1` [Compound 11, 4-(4-((1-(3-((4-(4-acryloylpiperazin-1-yl)-7-(3-hydroxynaphthalen-1-yl)-5,6,7,8-tetrahydropyrido[3,4-d]pyrimidin-2-yl)amino)propanoyl)piperidin-4-yl)methyl)phenyl)-5-(2,4-dihydroxy-5-isopropylphenyl)-N-(2,2,2-trifluoroethyl)-4H-1,2,4-triazole-3-carboxamide, trifluoroacetic acid], the EC50 in experiment [1] is above 1 µM; in experiment [2], 0.1 to 1 µM. The IC50 on HSP90a protein was above 1 µM.
Take `C=CC(=O)N1CCN(c2nc(NCCC(=O)N3CCN(Cc4ccc(CN(C)Cc5ccc(-n6c(C(=O)NCC(F)(F)F)nnc6-c6cc(C(C)C)c(O)cc6O)cc5)cc4)CC3)nc3c2CCN(c2cccc4ccccc24)C3)C[C@H]1CC#N` [Compound 109, (R)-4-(4-(((4-((4-(3-((4-(4-acryloyl-3-(cyanomethyl)piperazin-1-yl)-7-(naphthalen-1-yl)-5,6,7,8-tetrahydropyrido[3,4-d]pyrimidin-2-yl)amino)propanoyl)piperazin-1-yl)methyl)benzyl)(methyl)amino)methyl)phenyl)-5-(2,4-dihydroxy-5-isopropylphenyl)-N-(2,2,2-trifluoroethyl)-4H-1,2,4-triazole-3-carboxamide, trifluoroacetic acid]: the EC50 in experiment [1] and in experiment [2] was 0.1 to 1 µM each time. Besides, the IC50 on HSP90a protein lay in the range of 0.1 to 1 µM.
`CC(=O)N1CCN(c2nc(NCCC(=O)N3CCN(Cc4ccc(CN(C)Cc5ccc(-n6c(C(=O)NCC(F)(F)F)nnc6-c6cc(C(C)C)c(O)cc6O)cc5)cc4)CC3)nc3c2CCN(c2cc(O)cc4ccccc24)C3)CC1` [Compound 115, 4-(4-(((4-((4-(3-((4-(4-acetylpiperazin-1-yl)-7-(3-hydroxynaphthalen-1-yl)-5,6,7,8-tetrahydropyrido[3,4-d]pyrimidin-2-yl)amino)propanoyl)piperazin-1-yl)methyl)benzyl)(methyl)amino)methyl)phenyl)-5-(2,4-dihydroxy-5-isopropylphenyl)-N-(2,2,2-trifluoroethyl)-4H-1,2,4-triazole-3-carboxamide, trifluoroacetic acid]: the EC50 in experiment [1] and in experiment [2] was 0.1 to 1 µM throughout. The compound further gave an IC50 on HSP90a protein of 0.1 to 1 µM.
In the case of `CCCc1cc(-c2nnc(O)n2-c2ccc(CN3CCN(CC4CCN(C(=O)CCNc5nc6c(c(N7CCN(C(C)=O)CC7)n5)CCN(c5cc(O)cc7ccccc57)C6)CC4)CC3)cc2)c(O)cc1O` [Compound 59, 3-((4-(4-acetylpiperazin-1-yl)-7-(3-hydroxynaphthalen-1-yl)-5,6,7,8-tetrahydropyrido[3,4-d]pyrimidin-2-yl)amino)-1-(4-((4-(4-(3-(2,4-dihydroxy-5-propylphenyl)-5-hydroxy-4H-1,2,4-triazol-4-yl)benzyl)piperazin-1-yl)methyl)piperidin-1-yl)propan-1-one, trifluoroacetic acid], the EC50 in experiment [1] was above 1 µM; in experiment [2] it was 0.1 to 1 µM. The IC50 on HSP90a protein lay in the range of 0.1 to 1 µM.
On to `CCc1cc(-c2nnc(C(N)=O)n2-c2ccc(CN3CCN(CC4CCN(C(=O)CCNc5nc6c(c(N7CCN(C(C)=O)CC7)n5)CCN(c5cc(O)cc7ccccc57)C6)CC4)CC3)cc2)c(O)cc1O` [Compound 69, 4-(4-((4-((1-(3-((4-(4-acetylpiperazin-1-yl)-7-(3-hydroxynaphthalen-1-yl)-5,6,7,8-tetrahydropyrido[3,4-d]pyrimidin-2-yl)amino)propanoyl)piperidin-4-yl)methyl)piperazin-1-yl)methyl)phenyl)-5-(5-ethyl-2,4-dihydroxyphenyl)-4H-1,2,4-triazole-3-carboxamide, trifluoroacetic acid], for which the figures for the EC50 in experiment [1] and in experiment [2] were above 1 µM and 0.1 to 1 µM, respectively. In addition, the IC50 at HSP90a protein was below 0.1 µM.
Taken in the same sequence, the figures for `C=CC(=O)N1CCN(c2nc(NCCC(=O)N3CCC(CN4CCN(Cc5ccc(-n6c(C(N)=O)nnc6-c6cc(CC)c(O)cc6O)cc5)CC4)CC3)nc3c2CCN(c2cccc4cccc(Cl)c24)C3)C[C@H]1CC#N` [Compound 99, (R)-4-(4-((4-((1-(3-((4-(4-acryloyl-3-(cyanomethyl)piperazin-1-yl)-7-(8-chloronaphthalen-1-yl)-5,6,7,8-tetrahydropyrido[3,4-d]pyrimidin-2-yl)amino)propanoyl)piperidin-4-yl)methyl)piperazin-1-yl)methyl)phenyl)-5-(5-ethyl-2,4-dihydroxyphenyl)-4H-1,2,4-triazole-3-carboxamide, trifluoroacetic acid] were 0.1 to 1 µM, 0.1 to 1 µM and 0.1 to 1 µM.
Taken in the same sequence, the figures for `CCc1cc(-c2nnc(C(=O)NCC(F)(F)F)n2-c2ccc(CN(C)Cc3ccc(CC4CCN(C(=O)CCNc5nc6c(c(N7CCN(C(C)=O)[C@H](CC#N)C7)n5)CCN(c5cccc7ccccc57)C6)CC4)cc3)cc2)c(O)cc1O` [Compound 118, (R)-4-(4-(((4-((1-(3-((4-(4-acetyl-3-(cyanomethyl)piperazin-1-yl)-7-(naphthalen-1-yl)-5,6,7,8-tetrahydropyrido[3,4-d]pyrimidin-2-yl)amino)propanoyl)piperidin-4-yl)methyl)benzyl)(methyl)amino)methyl)phenyl)-5-(5-ethyl-2,4-dihydroxyphenyl)-N-(2,2,2-trifluoroethyl)-4H-1,2,4-triazole-3-carboxamide, trifluoroacetic acid] were 0.1 to 1 µM, 0.1 to 1 µM and above 1 µM.
The corresponding values for `CCc1cc(-c2nnc(O)n2-c2ccc(CN3CCN(CC4CCN(c5nc6c(c(N7CCN(C(=O)C(F)(F)F)[C@@H](CC#N)C7)n5)CCN(c5cccc7cccc(Cl)c57)C6)CC4)CC3)cc2)c(O)cc1O` [Compound 131, (S)-2-(4-(7-(8-chloronaphthalen-1-yl)-2-(4-((4-(4-(3-(5-ethyl-2,4-dihydroxyphenyl)-5-hydroxy-4H-1,2,4-triazol-4-yl)benzyl)piperazin-1-yl)methyl)piperidin-1-yl)-5,6,7,8-tetrahydropyrido[3,4-d]pyrimidin-4-yl)-1-(2,2,2-trifluoroacetyl)piperazin-2-yl)acetonitrile] are 0.1 to 1 µM, above 1 µM and above 1 µM.

The values are drawn from patent publication US20230391772A1, “METHODS AND COMPOSITIONS FOR TARGETED PROTEIN DEGRADATION” (Ranok Therapeutics (Hangzhou) Co. Ltd., priority 2020, published 2023).
